{"source": "paper PMC2771899", "about": "“Augmentation of Reverse Transcription by Integrase through an Interaction with Host Factor, SIP1/Gemin2 Is Critical for HIV-1 Infection” (PLoS ONE, 2009)", "key": {"recombinant SIP1 (rSIP1) [1]": {"tested_on": "recombinant SIP1 (rSIP1)", "experiment": "In vitro binding assay, nickel-column pull-down", "conditions": "10 µg rSIP1 with 10 µg His-IN, 2 h, 4°C, nickel agarose, anti-SIP1 Western blot"}, "IN-V5": {"tested_on": "IN-V5", "experiment": "Expression level of IN-V5 in 293T cells by Western blotting"}, "HIV-1 RT (GST-RTp66)": {"tested_on": "HIV-1 RT (GST-RTp66)", "experiment": "In vitro RT assay, stimulation by IN and SIP1", "type": "biochemical", "conditions": "truncated IN, any dose; 35 fmoles RT; 42°C, 30 min; real-time PCR; P = 0.58∼0.98", "experimental": "Figure 4 Augmentation of reverse transcription by HIV-1 IN and SIP1 in vitro. (A, B) The in vitro RT assay was carried out with 35 fmoles of HIV-1 RT (GST-RTp66) in the absence or presence of different amounts of full-length rIN (WT-IN). The truncated form of IN (IN1–70) that lack SIP1 binding domains was also tested in apparel as a control. The amount of HIV-1 cDNA was measured by real-time PCR using the HIV-1 R/U5 (A) or R/gag (B) primer pair. Significant augmentation (p<0.05) by WT-IN in the levels of HIV-1 cDNA compared with the level without IN (0 fmole) was indicated by asterisks. (C) The in vitro RT assay was carried out as described in (A) in either the absence or presence of […] of WT-IN, together with different amounts of rSIP1. (D) The in vitro RT assay was carried out with 3.5 fmoles of WT-IN (black bar) or IN1–70 (slash bar), in either the absence (−) or presence (+) of 50 fmoles of rSIP1. (E) The oligo(dT) cellulose resin was incubated with in vitro transcribed HIV-1 RNA for 1 h. After incubation, 10 µg of GST-RT in either the absence or presence of His-IN or rSIP1 was added and incubated for 2 h. After four washes with the IN storage buffer, precipitates were analyzed by immunoblot analysis using an anti-GST antibody.\nFor preparation of the viral RNA template for in vitro transcription, the DNA sequences corresponding to HIV-1 lentiviral genomic RNA (pCS-CDF-CG-PRE) were subcloned into pGEM-T vector (pGEM-CS-CDF). Then, the annealed oligonucleotides of TCGA(A)30G and TCGA(T)30C were inserted into the pGEM-CS-CDF vector at the Sal-I site for addition of the poly(A) tail (the pGEM-CS-CDF-PolyA). Synthesized HIV RNA with the poly(A) 30 tail were produced by in vitro transcription using RiboMAX™ Large Scale RNA Production System-T7 (Promega) with Ribo m^7 G Cap analog (Promega) to mimic the capped structure of mRNA. Transcription products of HIV-1 RNA (4.9 kb) were purified with spin columns MicroSpin™ G-25 Columns (American Biosciences), followed by gel-filtration using NAP-5 columns, (American Biosciences) and were used in the in vitro RT assay. The reverse transcription reactions were carried out in a final volume of 20 µl RT reaction buffer consisting of 50 mM Tris-HCl (pH 8.3), 75 mM KCl, 3 mM MgCl2, 10 mM DTT, 1 mM dNTPs, 0.04∼0.4 fmoles of HIV-1 RNA templates and 0.4∼4 fmoles of RNA primer, 3.5∼35 fmol HIV-1 RT (GST-RTp66). The reaction was carried out at 42°C for 30 min in either the absence or presence of different amount of His-IN and recombinant SIP1. The amount of the cDNA product was measured by real-time PCR using primers for the R/U5 or R/gag region.\nSupplementary file pone.0007825.s004.pdf: Figure S4 Stoichiometry and order of IN and SIP1 for their stimulatory effect of cDNA synthesis. (A) The in vitro RT assay was carried out in the absence or presence of different amount of the His-IN (0.2 or 1 pmol) or recombinant SIP1 (0.2 or 1 pmol) as described in Figure 4. The amount of cDNA product was measured by real-time PCR using primers for HIV-1 R/U5 region. (B) The in vitro RT assay was carried out with 5 pmoles of His-IN in the absence or presence of different amount SIP1 (1 or 5 pmol). (C) The in vitro RT assay was carried out in the absence or presence of the His-IN and recombinant SIP1 with [α32P]dCTP and subjected to SDS-PAGE analysis in denatured condition. (D) In vitro RT assay was performed as described above, except that rIN with rRT and rSIP1 were pre-incubated on ice in different combinations and orders (inlet Table). Then, reaction was initiated by adding mixture containing the template RNA/PBS-primer and dNTPs. (0.10 MB PDF) Click here for additional data file."}, "rSIP1": {"tested_on": "rSIP1", "experiment": "Dot-blot binding of peptide to SIP1", "conditions": "40 or 400 nmol peptide on nitrocellulose, rSIP1 (5 µg), anti-SIP1 antibody"}, "[2]": {"target": "T1, IN-SIP1 mediated RT activity (Homo sapiens, UniProt O14893)", "T1 construct": "the SIP1 gene was amplified from pTRE-SIP1 (kindly provided by Dr. G. Dreyfuss) by PCR and cloned into BamHI and EcoRI sites of pGEX-6P-2; GST (N, cleaved yes); made in house; host or cells: E. coli BL21 (GST-SIP1), E. coli M15 (His-IN)", "T1 sequence (O14893 1-280)": "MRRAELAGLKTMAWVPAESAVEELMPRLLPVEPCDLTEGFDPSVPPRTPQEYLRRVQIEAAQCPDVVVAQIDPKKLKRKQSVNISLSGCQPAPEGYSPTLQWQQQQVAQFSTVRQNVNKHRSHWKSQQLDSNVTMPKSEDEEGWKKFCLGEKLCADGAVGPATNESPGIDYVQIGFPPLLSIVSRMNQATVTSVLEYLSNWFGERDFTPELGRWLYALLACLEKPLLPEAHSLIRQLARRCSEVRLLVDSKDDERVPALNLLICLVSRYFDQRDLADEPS", "experiment": "In vitro RT assay, inhibition of IN-SIP1 mediated RT activity by peptide", "type": "biochemical, HIV-1", "conditions": "35 fmol RT, 3.5 fmol His-IN, 50 fmol rSIP1; for Effect on IN-SIP1 mediated RT activity: cDNA relative to control"}, "[3]": {"tested_on": "IN-SIP1 interaction (His-IN, rSIP1)", "experiment": "Dot-blot inhibition of IN-SIP1 interaction by peptide", "type": "binding, HIV-1"}, "[4]": {"tested_on": "HIVNL43-luc/VSV-G pseudotypes", "type": "cell-based, HIV-1"}, "[5]": {"target": "full-length His-tagged HIV-1 integrase Y15A (HIV-1 (pNL4-3))", "experiment": "not stated; data not shown; in vitro, recombinant IN-Y15A"}, "recombinant SIP1 (rSIP1) [6]": {"target": "recombinant SIP1 (rSIP1) (UniProt O14893)"}, "recombinant SIP1 (rSIP1) [7]": {"target": "recombinant SIP1 (rSIP1) (UniProt O14893)", "remark": "listed apart in the source"}, "[8]": {"target": "wild type HIV-1 integrase with V5 epitope (IN-V5, WT-V5) (HIV-1 (pNL4-3))", "experiment": "cross-linking"}}, "note": "Values joined by “and” are separate entries in the source; they are usually repeats but may differ in a detail not shown here. Equal values may be shown once. Peptide text beside a SMILES is read from it. * marks the point of attachment. Cbz = O=C(OCc1ccccc1)*", "data": [{"compound": "1-60: His-tagged IN deletion form", "values": [{"measurement": "Binding to rSIP1 in vitro", "setting": "recombinant SIP1 (rSIP1) [1]", "value": "did not bind to rSIP1"}]}, {"compound": "1-70: His-tagged IN deletion form", "values": [{"measurement": "Binding to rSIP1 in vitro", "setting": "recombinant SIP1 (rSIP1) [1]", "value": "did not bind to rSIP1"}]}, {"compound": "1-80: His-tagged IN deletion form", "values": [{"measurement": "Binding to rSIP1 in vitro", "setting": "recombinant SIP1 (rSIP1) [1]", "value": "significant binding to rSIP1"}]}, {"compound": "1-90: His-tagged IN deletion form", "values": [{"measurement": "Binding to rSIP1 in vitro", "setting": "recombinant SIP1 (rSIP1) [1]", "value": "significant binding to rSIP1"}]}, {"compound": "1-100: His-tagged IN deletion form", "values": [{"measurement": "Binding to rSIP1 in vitro", "setting": "recombinant SIP1 (rSIP1) [1]", "value": "significant binding to rSIP1"}]}, {"compound": "1-220: His-tagged IN deletion form", "values": [{"measurement": "Binding to rSIP1 in vitro", "setting": "recombinant SIP1 (rSIP1) [1]", "value": "significantly restored binding of IN to rSIP1"}]}, {"compound": "1-230: His-tagged IN deletion form", "values": [{"measurement": "Binding to rSIP1 in vitro", "setting": "recombinant SIP1 (rSIP1) [1]", "value": "significantly restored binding of IN to rSIP1"}]}, {"compound": "1-240: His-tagged IN deletion form", "values": [{"measurement": "Binding to rSIP1 in vitro", "setting": "recombinant SIP1 (rSIP1) [1]", "value": "significantly reduced binding to rSIP1"}]}, {"compound": "1-250: His-tagged IN deletion form", "values": [{"measurement": "Binding to rSIP1 in vitro", "setting": "recombinant SIP1 (rSIP1) [1]", "value": "significantly reduced binding to rSIP1"}]}, {"compound": "1-260: His-tagged IN deletion form", "values": [{"measurement": "Binding to rSIP1 in vitro", "setting": "recombinant SIP1 (rSIP1) [1]", "value": "significantly reduced binding to rSIP1"}]}, {"compound": "1-270: His-tagged IN, the 18 amino acids from the C-terminal deleted", "values": [{"measurement": "Binding to rSIP1 in vitro", "setting": "recombinant SIP1 (rSIP1) [1]", "value": "efficient interaction with rSIP1 in vitro"}]}, {"compound": "CC(C)C[C@@H](C=O)NC(=O)[C@H](CC(C)C)NC(=O)[C@H](CC(C)C)NC(=O)OCc1ccccc1", "note": "[MG132] (Cbz-Leu-Leu-Leu-aldehyde)", "values": [{"measurement": "Effect of MG132 on level of WT-V5", "setting": "IN-V5; 10 µM MG-132", "value": "not changed"}, {"measurement": "Effect of MG132 on expression level of IN mutants", "setting": "IN-V5; 10 µM MG-132, Y15A-V5, K186Q-V5 and LL241,242AA-V5", "value": "restored the expression levels of the IN mutants"}, {"measurement": "Effect of MG132 on level of IN-V5 in siSIP1-treated cells", "setting": "IN-V5; siSIP1 treated", "value": "restored"}]}, {"compound": "IN1–70: truncated HIV-1 IN that lacks the central and C-terminal domains", "values": [{"measurement": "Effect on level of cDNA products (R/U5)", "setting": "HIV-1 RT (GST-RTp66)", "value": "no significant stimulatory effect at any dose"}]}, {"compound": "IN154–174: control peptide, residues of 154–174, contains a motif critical for the interaction with LEDGF/p75 (MNKELKKIIGQVRDQAEHLKT; Integrase; UniProt P04585 1301-1321, looked up, fragment) [reference compound]", "values": [{"measurement": "Direct binding of peptide to rSIP1", "setting": "rSIP1", "value": "did not"}, {"measurement": "Effect on IN-SIP1 mediated RT activity", "setting": "[2]", "value": "inhibitory effect was not evident"}]}, {"compound": "IN231–251: synthetic peptide corresponding to the residues of 231–251 of HIV-1 IN", "values": [{"measurement": "Direct binding of peptide to rSIP1", "setting": "rSIP1", "value": "efficiently bound to rSIP1"}, {"measurement": "Peptide concentration that reduces His-WT binding to SIP1 to non-specific background levels", "setting": "[3]; His-IN (10 µg) on nitrocellulose, 5 µg rSIP1", "value": "at least 50 µM"}, {"measurement": "Interference with binding of full-length IN (His-WT) to SIP1", "setting": "[3]; His-IN (10 µg) on nitrocellulose, 5 µg rSIP1, peptide present", "value": "significantly interfered with the binding of the full-length IN (His-WT) to the SIP1 protein"}, {"measurement": "Effect on IN-SIP1 interaction and its RT-stimulatory effects", "setting": "[3]; summary statement", "value": "inhibit the IN-SIP1 interaction and its RT-stimulatory effects"}, {"measurement": "IC50, inhibition of IN-SIP1 mediated RT activity", "setting": "[2]; 42°C, 30 min, 20 µl, real-time PCR", "value": "~1", "unit": "nmoles per reaction"}, {"measurement": "Effect on IN-SIP1 mediated RT activity", "setting": "[2]", "value": "significantly reduced the IN-SIP1 mediated RT activity in a dose-dependent manner"}, {"measurement": "Effect on HIV-1 infectivity", "setting": "[4]", "value": "did not significantly reduce HIV-1 infectivity"}]}, {"compound": "full-length His-tagged HIV-1 integrase Y15A (enzyme)", "values": [{"measurement": "stoichiometry N", "setting": "[5]", "value": 2}]}, {"compound": "synthetic peptide IN60–80", "values": [{"measurement": "IC50 of inhibition of the IN-SIP1 mediated RT activity in the in vitro reverse transcription assay (35 fmol RT, 3.5 fmol His-IN, 50 fmol rSIP1); the pair blocked is m2 with m15 (pmoles per reaction)", "setting": "recombinant SIP1 (rSIP1) [6]", "value": 10}, {"measurement": "HIV-1 infectivity (luciferase activity) in PMA-stimulated THP-1 cells with 100 µM peptide, relative to control; the pair blocked is IN with SIP1", "setting": "recombinant SIP1 (rSIP1) [7]", "value": "20 % of control and 25 % of control"}]}, {"compound": "synthetic peptide IN231–251", "values": [{"measurement": "IC50 of inhibition of the IN-SIP1 mediated RT activity in the in vitro reverse transcription assay (35 fmol RT, 3.5 fmol His-IN, 50 fmol rSIP1); the pair blocked is m2 with m15 (nmoles per reaction)", "setting": "recombinant SIP1 (rSIP1) [6]", "value": 1}]}, {"compound": "wild type HIV-1 integrase with V5 epitope (IN-V5, WT-V5) (enzyme)", "values": [{"measurement": "tetramer formation relative to control siRNA treated cells (SIP1 knock-down cells)", "setting": "[8]", "value": 50, "unit": "%"}]}]}
